# Assay results published in US20240415804A1, “METHOD OF TREATING PANCREATIC CANCER” (University of South Florida, priority 2022, published 2024).
# Tested on: CD8+ T cells and MHC-II+ cells
# Test: AKOYA-CODEX imaging of tumor sections of KC-HPC mice
# Type: in vivo, mouse
# Source text: Next, the inventors examined the expression and infiltration of CD8^+ T cells and MHC-II^+ cells in the tumor sections of KC-HPC treated with vehicle or API and using AKOYA-CODEX which provides spatial capture of location and phenotype for multiple immune cells in the tumor. […] The inventors then observed, via 2D tSNE, increased CD8^+ T cell expression partially located within the tumor plots for the tumors of KC-HPC-API mice compared with vehicle treated KC-HPC mice (FIG. 15B). The poly-1-lysine coated coverslips containing 5-μm of Fresh Frozen (FF) tissue sections were stored at […] until use. At the staining time, FF tissue sections were baked for 30 min to 1 h at 55° C. According to Akoya Biosciences protocol, the FF tissues were dewaxed, deparaffinized in xylene then rehydrated in descending ethanol concentrations (100% twice, 90%, 70%, 50%, and 30%, respectively) and washed in ddH2O twice, each step for 5 min. Heat-induced epitope retrieval with antigen retrieval solution, pH 6, was performed using the pressure cooker at high-pressure protocol ([…]) for 20 min. After cooling at room temperature (RT) for 30 min to 1 h, the coverslips were washed in ddH2O twice for 2 min. […] The processed data were analyzed using the CODEX-MAV plugin in Image J. Then, nuclei segmentation was performed, followed by gating and clustering of the CD8+ T cells populations. […]
structure (smiles),measurement,setting,value
"O=c1cc(-c2ccc(O)cc2)oc2cc(O)cc(O)c12 [API, 40,5,7-Trihydroxyflavone, 5,7-Dihydroxy-2-(4-hydroxyphenyl)-4-benzopyrone]",MHC-II+ cells in tumor sections (2D UMAP),"API treated KC-HPC mice, non-detectable in KC-HPC mice",increase
same,CD8+ T cell expression in tumor sections (2D tSNE),KC-HPC-API vs vehicle treated KC-HPC mice,increased
